The structures appear in SMILES notation.

Holding throughout (type): cell-based
One test has as its system Pyricalaria oryzae. Nature of the test: In vitro mycelial/spore growth on potato-sucrose-agar, percent disease control (PO). Conditions: read-out: % controlled, PO. The method, then:
(§1) The compounds of this invention were dissolved respectively in acetone in an amount equal to 10% of the final volume and then in purified water at the concentration of 100 ppm and 50 ppm.
(§2) Each of the solution was mixed with potato-sucrose-agar medium in 6" petri dish and one of the fungi was spotted at the center of the dish. The dish was incubated in growth room for several days. The percent disease control was derived from the radii of spore growth. The screening tests in vitro condition are well-known to those skilled in the art.
(§3) The following fungi were used for the screening.
6) Py. or.; Pyricalaria oryzae

In another test the test system is Botryosphaeri. Kind of test: In vitro mycelial/spore growth on potato-sucrose-agar, percent disease control (BD). Conditions: read-out: % controlled, BD. The method, then:
as §1, §2, §3
4) Bo. do (Ma); Botryosphaeri

Another test concerns GC. Kind of test: In vitro mycelial/spore growth on potato-sucrose-agar, percent disease control (GC). Conditions: read-out: % controlled, GC; for inhibition of growth at 50 ppm: GC. The method, then:
as §1, §2, §3

In a further test the test system is Rhizoctonia solani. Nature of the test: In vitro mycelial/spore growth on potato-sucrose-agar, percent disease control (RS, first column). The note with it: read-out: % controlled, RS. The method, then: as §1, §2, §3
7) Rhi. so.; Rhizoctonia solani

Another test deals with Rhizopus sp. Nature of the test: In vitro mycelial/spore growth on potato-sucrose-agar, percent disease control (RS, second column). Conditions: read-out: % controlled, RS; for inhibition of growth at 50 ppm: Rhizopus sp.; for inhibition of growth at 200 ppm: Rhizopus. How it is done:
as §1, §2, §3
9) Rhi. sp.; Rhizopus sp.

Another test relates to Fusarium moniliforme. Nature of the test: In vitro mycelial/spore growth on potato-sucrose-agar, percent disease control (FM). The note with it: Fusarium verticillioides, Fusarium moniliforme, read-out: % controlled, FM. The method, then: as §1, §2, §3
8) Fu. mo.; Fusarium moniliforme

The next test deals with Botritis cinerea. Kind of test: In vitro mycelial/spore growth on potato-sucrose-agar, percent disease control (BC). Conditions: read-out: % controlled, BC. The method, then:
as §1, §2, §3
10) Bo. ci.; Botritis cinerea

For a further test, the system named is Phytophthora capsisi. Kind of test: In vitro mycelial/spore growth on potato-sucrose-agar, percent disease control (PC). Conditions: read-out: % controlled, PC. The method, then:
as §1, §2, §3
2) Phy. ca.; Phytophthora capsisi

As to `CC(n1cncn1)[Si]1(c2ccc(F)cc2)CCCCC1` (stereo not drawn) [1-(4-fluorophenyl)-1-[α-(1H-1,2,4-triazole-1-yl)ethyl]-1-silacyclohexane], the inhibition of growth at 50 ppm in the test with Pyricalaria oryzae was 100%; with Botryosphaeri it was 100%; in the test on GC, 100%; in the test on Rhizoctonia solani, 100%; in the test on Rhizopus sp., 76%; in the test with Fusarium moniliforme, 100%. Also, the inhibition of growth at 50 ppm in the test with Botritis cinerea is 100%; in the test with Phytophthora capsisi, 77%. Further, the inhibition of growth at 200 ppm with Pyricalaria oryzae was 100%; in the test with Botryosphaeri, 100%; in the test on GC, 100%; in the test on Rhizoctonia solani it was 100%; in the test on Rhizopus sp. it was 86%; in the test on Fusarium moniliforme it was 100%. In addition, the inhibition of growth at 200 ppm in the test with Botritis cinerea was determined as 100%; with Phytophthora capsisi, 85%.

For `c1ccc(-c2ccc([Si]3(Cn4cncn4)CCCC3)cc2)cc1` [1-(4-biphenyl)-1-(1H-1,2,4-triazole-1-yl)methyl-1-silacyclopentane], the inhibition of growth at 50 ppm was 100% in the test with Pyricalaria oryzae; 72% in the test with Botryosphaeri; 100% in the test with GC; 89% in the test with Rhizoctonia solani; 69% with Rhizopus sp.; 47% in the test with Fusarium moniliforme. The inhibition of growth at 50 ppm turned out to be 15% in the test with Botritis cinerea and 68% in the test with Phytophthora capsisi. In addition, the inhibition of growth at 200 ppm was determined as 100% with Pyricalaria oryzae; 72% in the test on Botryosphaeri; 100% in the test on GC; 93% in the test with Rhizoctonia solani; 72% in the test with Rhizopus sp.; 100% in the test on Fusarium moniliforme. The inhibition of growth at 200 ppm with Botritis cinerea came to 30%; with Phytophthora capsisi, 100%.

Take `CC(n1cncn1)[Si]1(c2ccc(Cl)cc2Cl)CCCCC1` (stereo not drawn) [1-(2,4-dichlorophenyl)-1-[α-(1H-1,2,4-triazole-1-yl)ethyl]-1-silacyclohexane]: the inhibition of growth at 50 ppm in the test on Pyricalaria oryzae is 100%; in the test on Botryosphaeri it was 100%; in the test with GC, 100%; in the test on Rhizoctonia solani it was 100%; with Rhizopus sp., 54%; in the test with Fusarium moniliforme, 100%. The values for the inhibition of growth at 50 ppm in the test on Botritis cinerea and in the test on Phytophthora capsisi were 100% and 64%, respectively. Moreover, the inhibition of growth at 200 ppm with Pyricalaria oryzae was determined as 100%; with Botryosphaeri, 100%; in the test with GC, 100%; in the test on Rhizoctonia solani, 100%; in the test on Rhizopus sp., 60%; in the test with Fusarium moniliforme it was 100%. For the same compound, the inhibition of growth at 200 ppm in the test on Botritis cinerea and with Phytophthora capsisi was 100% in each case.

As for `Clc1ccc([Si]2(Cn3cncn3)CCCCC2)cc1` [1-(4-chlorophenyl)-1-(1H-1,2,4-triazole-1-yl)methyl-1-silacyclohexane], the inhibition of growth at 50 ppm was determined as 100% with Pyricalaria oryzae; 100% in the test with Botryosphaeri; 100% in the test on GC; 57% in the test on Rhizoctonia solani; 50% in the test on Rhizopus sp.; 100% in the test on Fusarium moniliforme. The figures for the inhibition of growth at 50 ppm in the test on Botritis cinerea and in the test on Phytophthora capsisi were 100% and 90%, respectively. In addition, the inhibition of growth at 200 ppm in the test on Pyricalaria oryzae is 100%; in the test on Botryosphaeri it was 100%; in the test on GC, 100%; in the test with Rhizoctonia solani, 69%; in the test with Rhizopus sp. it was 92%; in the test on Fusarium moniliforme, 100%. Further, the inhibition of growth at 200 ppm in the test on Botritis cinerea and with Phytophthora capsisi was 100% throughout.
